Details: particle size by volume, laser light diffraction, dry dispersion
Description: Particle size determination of Levonorgestrel
Equipment • Diffractometer of laser light, Mastersizer 3000 or equivalent • Micro analytical balance or semimicro
Weigh approximately 0.2-0.3g of the drug substance, and introduce to the dry accessory.
Dispersion Unit: MAZ3500 and cell (AD01)
Refraction index: 1.5/1.5 (red light/blue light)
Distribution Format: • Single mode • Enhanced sensitivity • Fine powder (activate)
Background run time: 10 s
Filter obscuration: 0.5-6%
Sampler settings: • Vibration feed rate: 50% • Dispersive air pressure: 2.5 bar

`C#C[C@]1(O)CC[C@H]2[C@@H]3CCC4=CC(=O)CC[C@@H]4[C@H]3CC[C@@]21CC` [Ultra-micronized levonorgestel, Levonorgestrel] showed a D10 of 0.2 μm, a D50 of 1.0 μm and a D90 of 1.1 μm.

From US20150258020A1, “CHEWABLE TABLETS COMPRISING LEVONORGESTREL” (priority 2014, published 2015)
